How the values were obtained:
BCRP = molecular target: T1, BCRP (Homo sapiens, UniProt Q9UNQ0)
T1 construct: gene ABCG2
T1 sequence (Q9UNQ0 1-655): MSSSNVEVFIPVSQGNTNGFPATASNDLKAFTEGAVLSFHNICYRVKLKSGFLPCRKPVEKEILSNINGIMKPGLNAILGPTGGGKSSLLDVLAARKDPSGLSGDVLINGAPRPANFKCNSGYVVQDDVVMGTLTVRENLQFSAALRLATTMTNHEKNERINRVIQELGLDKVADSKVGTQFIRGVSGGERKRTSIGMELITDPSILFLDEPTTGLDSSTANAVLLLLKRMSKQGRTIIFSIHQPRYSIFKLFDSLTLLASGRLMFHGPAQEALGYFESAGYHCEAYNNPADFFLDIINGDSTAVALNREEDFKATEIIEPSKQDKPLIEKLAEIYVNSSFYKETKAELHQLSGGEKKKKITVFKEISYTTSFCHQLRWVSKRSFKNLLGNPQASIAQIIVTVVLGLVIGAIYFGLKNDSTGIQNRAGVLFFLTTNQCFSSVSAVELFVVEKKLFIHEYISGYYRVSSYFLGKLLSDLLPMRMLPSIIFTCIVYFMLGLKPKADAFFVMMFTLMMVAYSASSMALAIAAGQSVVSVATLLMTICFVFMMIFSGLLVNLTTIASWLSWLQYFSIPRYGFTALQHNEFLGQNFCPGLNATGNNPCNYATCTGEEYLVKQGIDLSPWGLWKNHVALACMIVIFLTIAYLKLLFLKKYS

P-gp = molecular target: T2, P-gp (Homo sapiens, UniProt P08183); test: inhibition of ceralasertib-stimulated P-gp ATPase in crude membranes
T2 construct: gene ABCB1; crude membrane protein isolated from High Five insect cells
T2 sequence (P08183 whole entry): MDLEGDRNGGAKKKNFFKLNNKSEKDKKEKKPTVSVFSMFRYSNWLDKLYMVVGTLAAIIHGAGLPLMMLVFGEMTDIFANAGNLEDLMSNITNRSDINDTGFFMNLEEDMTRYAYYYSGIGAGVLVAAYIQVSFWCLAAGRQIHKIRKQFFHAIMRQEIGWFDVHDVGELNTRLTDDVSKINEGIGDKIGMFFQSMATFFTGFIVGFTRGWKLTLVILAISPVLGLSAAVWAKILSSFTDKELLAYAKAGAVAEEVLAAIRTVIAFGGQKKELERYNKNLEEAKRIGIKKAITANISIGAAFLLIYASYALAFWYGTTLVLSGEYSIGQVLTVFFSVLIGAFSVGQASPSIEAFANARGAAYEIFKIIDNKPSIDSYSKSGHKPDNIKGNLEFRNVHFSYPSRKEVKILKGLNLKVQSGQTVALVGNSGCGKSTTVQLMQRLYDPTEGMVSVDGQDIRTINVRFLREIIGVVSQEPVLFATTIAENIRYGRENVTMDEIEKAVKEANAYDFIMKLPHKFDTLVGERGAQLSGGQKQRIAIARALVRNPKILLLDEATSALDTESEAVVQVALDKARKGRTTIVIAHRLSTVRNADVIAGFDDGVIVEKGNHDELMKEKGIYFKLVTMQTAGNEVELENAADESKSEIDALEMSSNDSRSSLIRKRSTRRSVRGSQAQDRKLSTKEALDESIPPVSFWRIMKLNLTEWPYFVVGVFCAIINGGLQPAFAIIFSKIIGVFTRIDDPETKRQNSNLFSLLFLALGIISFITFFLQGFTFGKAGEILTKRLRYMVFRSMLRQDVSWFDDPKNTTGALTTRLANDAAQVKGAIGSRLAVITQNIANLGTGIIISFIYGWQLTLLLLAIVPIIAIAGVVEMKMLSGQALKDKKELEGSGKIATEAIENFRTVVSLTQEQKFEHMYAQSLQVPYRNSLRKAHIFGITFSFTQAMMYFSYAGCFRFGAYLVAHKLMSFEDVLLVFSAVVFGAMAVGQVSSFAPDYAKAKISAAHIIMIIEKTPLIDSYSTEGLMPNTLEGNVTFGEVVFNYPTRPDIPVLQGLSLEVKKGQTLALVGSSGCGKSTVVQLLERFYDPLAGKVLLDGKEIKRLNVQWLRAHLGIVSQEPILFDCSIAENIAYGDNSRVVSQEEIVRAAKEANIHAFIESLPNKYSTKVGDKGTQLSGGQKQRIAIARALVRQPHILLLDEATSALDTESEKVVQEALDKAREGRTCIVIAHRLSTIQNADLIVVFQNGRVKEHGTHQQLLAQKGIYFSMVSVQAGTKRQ

SMILES | radiolabelled efflux/accumulation in NCI-H460/TPT10 cells, reversed by Ko143 (BCRP) | inhibition of ceralasertib-stimulated P-gp ATPase in crude membranes (P-gp)
O=C1c2c(O)ccc(O)c2C(=O)c2c(NCCNCCO)ccc(NCCNCCO)c21 [mitoxantrone] | BCRP-overexpressing NCI-H460/TPT10 cells have decreased intracellular level of [^3H]-mitoxantrone, which can be reversed by Ko143 | –
CN1CCC(COc2cnc(-c3cccc(Cn4nc(-c5cccc(C#N)c5)ccc4=O)c3)nc2)CC1 [tepotinib] | – | Tepotinib, a P-gp ATPase inhibitor, was able to significantly block the activation caused by ceralasertib.

From paper PMC11096521 (Frontiers in Pharmacology, 2024)
